Reference: US10280198B2, “Therapeutic agents for reducing parathyroid hormone levels” (KAI PHARMACEUTICALS, INC., priority 2009, dated 2019)
Like-named read-outs stand apart in the source and are kept apart here. Square brackets hold non-standard residues; d marks the D form. Peptide text beside a SMILES is read from it.

Key:
plasma PTH = test: In vivo PTH lowering after IV bolus in isoflurane-anesthetized normal Sprague Dawley rats; set-up: species or system rat; conditions: Table 6; normal rats, AUC 1-4 h
Description: The peptides were administered intravenously at a dose of 0.5 mg/kg into isoflurane-anesthetized normal Sprague Dawley rats. A control group of rats was treated with saline. Blood was drawn prior to dosing and every hour for 4 hours. Rats were maintained under isoflurane anesthesia for the entire study. […] Percent PTH reduction was calculated according to the following formula: AUCcmpd treated/AUCsaline control*100.
An intravenous (IV) bolus of saline was used as a control. Plasma (K2EDTA) PTH levels were assessed prior to dosing and 1, 2, 3 and 4 hours after dosing. Rats were maintained under isoflurane anesthesia for the entire study. […] In FIG. 2B, PTH is shown as percent of the baseline pre-dose value.
A series of compounds having an L-amino acid residue substituted for a D-amino acid residue were prepared. The compounds were administered as an IV bolus to normal Sprague Dawley rats at a dose of 0.5 mg/kg. An intravenous (IV) bolus of saline was used as a control. […] Rats were maintained under isoflurane anesthesia for the entire study.

[1] = test system: rat peritoneal mast cells; test: In vitro histamine induction in rat peritoneal mast cells; assay type: cell-based
Description: To further evaluate the relationship between compound structure and histamine release, a series of compounds was prepared and assessed for their ability to trigger induction of histamine in an in vitro assay using rat peritoneal mast cells. In this assay, compounds are incubated at 10 μM for 15 minutes at 37° C. with cells isolated from peritoneal lavage of SD rats. Following incubation, cell medium is collected and histamine is determined.
Accordingly, and as can be appreciated in view of the PTH data and the histamine data described hereinabove, in one embodiment, a compound that has activity to decrease PTH level in a subject in the absence of a histamine response is contemplated. In certain embodiments, absence of a histamine response intends a dose of the compound that produces a less than 10-fold, more preferably 8-fold, still more preferably 5-fold, and even still more preferably 3-fold, increase in histamine, measured in vitro in an assay as described herein, where the fold change is determined based on histamine levels before incubation with the compound and after 15 minutes incubation with compound. In a specific embodiment, the histamine response is determined in an in vitro assay using rat peritoneal mast cells isolated from peritoneal lavage of normal Sprague Dawley rats, and where the fold change is determined based on histamine levels before incubation with the compound and after 15 minutes incubation with compound. In the studies conducted herein, the in vitro evaluation of histamine release was performed using isolated rat peritoneal mast cells isolated by peritoneal lavage using cold HBSS+25 mM HEPES pH 7.4 containing heparin (5 u/mL). Cells were washed twice in stimulation buffer (HBSS+25 mM HEPES pH 7.4) and incubated with 10 μM of compound in stimulation buffer (HBSS+25 mM HEPES pH 7.4) for 15 minutes in a 96-well plate ([…]) at 37° C. Cell supernatant was analyzed for histamine using histamine EIA kit (Cayman #589651).
For in vitro evaluation of histamine release, isolated rat peritoneal mast cells were isolated by performing peritoneal lavage using cold HBSS+25 mM HEPES pH 7.4 containing heparin (5 u/mL). Cells were washed twice in stimulation buffer (HBSS+25 mM HEPES pH 7.4) and incubated with 10 μM of compound in stimulation buffer (HBSS+25 mM HEPES pH 7.4) for 15 minutes in a 96-well plate (10^6/well) at 37° C. Cell supernatant was analyzed for histamine using histamine EIA kit (Cayman #589651).

Compound | Histamine in vitro Fold change of non-treated at 10 uM [1] [fold] | 0.5 mg/kg IV bolus % PTH AUC of saline control (plasma PTH) [%] | Histamine in vitro Fold change of non-treated at 10 uM ([1]; Table 9, 10 μM, 15 minutes, 37° C.) [fold]
CC[C@@H](C)[C@@H](NC(=O)[C@@H](CS)NC(C)=O)C(=O)N[C@H](CCCNC(=N)N)C(=O)N[C@H](CCCNC(=N)N)C(=O)N[C@H](CCCNC(=N)N)C(=O)N[C@H](C)C(=O)N[C@H](CCCNC(=N)N)C(N)=O [SEQ ID NO: 96, Ac-cirrrar-NH2] (Ac-[dC][dI][dR][dR][dR][dA][dR]-NH2) | 3.0 | 33 | –
CC(=O)N[C@H](CS)C(=O)N[C@H](CC(C)C)C(=O)N[C@H](CCCNC(=N)N)C(=O)N[C@H](CCCNC(=N)N)C(=O)N[C@H](CCCNC(=N)N)C(=O)N[C@H](C)C(=O)N[C@H](CCCNC(=N)N)C(N)=O [SEQ ID NO: 98, Ac-clrrrar-NH2] (Ac-[dC][dL][dR][dR][dR][dA][dR]-NH2) | 2.2 | 26 | –
CC(=O)N[C@H](CS)C(=O)N[C@H](CCC(N)=O)C(=O)N[C@H](CCCNC(=N)N)C(=O)N[C@H](CCCNC(=N)N)C(=O)N[C@H](CCCNC(=N)N)C(=O)N[C@H](C)C(=O)N[C@H](CCCNC(=N)N)C(N)=O [SEQ ID NO: 99, Ac-cqrrrar-NH2] (Ac-[dC][dQ][dR][dR][dR][dA][dR]-NH2) | 1.9 | 24 | –
CC(=O)N[C@H](CS)C(=O)N[C@@H](C(=O)N[C@H](CCCNC(=N)N)C(=O)N[C@H](CCCNC(=N)N)C(=O)N[C@H](CCCNC(=N)N)C(=O)N[C@H](C)C(=O)N[C@H](CCCNC(=N)N)C(N)=O)[C@H](C)O [SEQ ID NO: 100, Ac-ctrrrar-NH2] (Ac-[dC][dT][dR][dR][dR][dA][dR]-NH2) | 1.1 | 23 | –
CC(=O)N[C@H](CS)C(=O)N[C@H](CCCNC(=N)N)C(=O)N[C@H](CCCNC(=N)N)C(=O)NCC(=O)N[C@H](CCCNC(=N)N)C(=O)N[C@H](C)C(=O)N[C@H](CCCNC(=N)N)C(N)=O [SEQ ID NO: 105, Ac-crrGrar-NH2] (Ac-[dC][dR][dR]G[dR][dA][dR]-NH2) | 1.8 | 69 | –
CC(=O)N[C@H](CS)C(=O)N[C@H](CCCNC(=N)N)C(=O)N[C@H](CCCNC(=N)N)C(=O)N1CCC[C@@H]1C(=O)N[C@H](CCCNC(=N)N)C(=O)N[C@H](C)C(=O)N[C@H](CCCNC(=N)N)C(N)=O [SEQ ID NO: 106, Ac-crrprar-NH2] (Ac-[dC][dR][dR][dP][dR][dA][dR]-NH2) | 1.1 | 68 | –
CC(=O)N[C@H](CS)C(=O)N[C@H](CCCNC(=N)N)C(=O)N[C@H](CCCNC(=N)N)C(=O)N[C@H](CCC(=O)O)C(=O)N[C@H](CCCNC(=N)N)C(=O)N[C@H](C)C(=O)N[C@H](CCCNC(=N)N)C(N)=O [SEQ ID NO: 107, Ac-crrerar-NH2] (Ac-[dC][dR][dR][dE][dR][dA][dR]-NH2) | – | 56 | 0.6
CC(=O)N[C@H](CS)C(=O)N[C@H](CCCNC(=N)N)C(=O)N[C@H](CCCNC(=N)N)C(=O)N[C@@H](C(=O)N[C@H](CCCNC(=N)N)C(=O)N[C@H](C)C(=O)N[C@H](CCCNC(=N)N)C(N)=O)[C@H](C)O [SEQ ID NO: 108, Ac-crrtrar-NH2] (Ac-[dC][dR][dR][dT][dR][dA][dR]-NH2) | 1.2 | 13 | –
CC(=O)N[C@H](CS)C(=O)N[C@H](CCCNC(=N)N)C(=O)N[C@H](CCCNC(=N)N)C(=O)N[C@H](CCC(N)=O)C(=O)N[C@H](CCCNC(=N)N)C(=O)N[C@H](C)C(=O)N[C@H](CCCNC(=N)N)C(N)=O [SEQ ID NO: 112, Ac-crrqrar-NH2] (Ac-[dC][dR][dR][dQ][dR][dA][dR]-NH2) | 1.2 | 4 | –
CC(=O)N[C@H](CS)C(=O)N[C@H](CCCNC(=N)N)C(=O)N[C@H](CCCNC(=N)N)C(=O)N[C@@H](C(=O)N[C@H](CCCNC(=N)N)C(=O)N[C@H](C)C(=O)N[C@H](CCCNC(=N)N)C(N)=O)C(C)C [SEQ ID NO: 113, Ac-crrvrar-NH2] (Ac-[dC][dR][dR][dV][dR][dA][dR]-NH2) | 1.9 | 3 | –
CC[C@@H](C)[C@@H](NC(=O)[C@@H](CCCNC(=N)N)NC(=O)[C@@H](CCCNC(=N)N)NC(=O)[C@@H](CS)NC(C)=O)C(=O)N[C@H](CCCNC(=N)N)C(=O)N[C@H](C)C(=O)N[C@H](CCCNC(=N)N)C(N)=O [SEQ ID NO: 115, Ac-crrirar-NH2] (Ac-[dC][dR][dR][dI][dR][dA][dR]-NH2) | 3.4 | 0 | –

Now from value to compound, other results behind:

Histamine in vitro Fold change of non-treated at 10 uM [1] [fold] | Compound | 0.5 mg/kg IV bolus % PTH AUC of saline control (plasma PTH) [%] | Histamine in vitro Fold change of non-treated at 10 uM ([1]; Table 9, 10 μM, 15 minutes, 37° C.) [fold]
0.9 | CC(=O)N[C@H](CS)C(=O)N[C@H](CO)C(=O)N[C@H](CCCNC(=N)N)C(=O)N[C@H](CCCNC(=N)N)C(=O)N[C@H](CCCNC(=N)N)C(=O)N[C@H](C)C(=O)N[C@H](CCCNC(=N)N)C(N)=O [SEQ ID NO: 102, Ac-csrrrar-NH2] (Ac-[dC][dS][dR][dR][dR][dA][dR]-NH2) | 13 | –
1.6 | CC(=O)N[C@H](CS)C(=O)N[C@H](Cc1c[nH]cn1)C(=O)N[C@H](CCCNC(=N)N)C(=O)N[C@H](CCCNC(=N)N)C(=O)N[C@H](CCCNC(=N)N)C(=O)N[C@H](C)C(=O)N[C@H](CCCNC(=N)N)C(N)=O [SEQ ID NO: 103, Ac-chrrrar-NH2] (Ac-[dC][dH][dR][dR][dR][dA][dR]-NH2) | 1 | –
6.8 | CC(=O)N[C@H](CS)C(=O)N[C@H](Cc1ccccc1)C(=O)N[C@H](CCCNC(=N)N)C(=O)N[C@H](CCCNC(=N)N)C(=O)N[C@H](CCCNC(=N)N)C(=O)N[C@H](C)C(=O)N[C@H](CCCNC(=N)N)C(N)=O [SEQ ID NO: 104, Ac-cfrrrar-NH2] (Ac-[dC][dF][dR][dR][dR][dA][dR]-NH2) | 0 | –
2.3 | CC(=O)N[C@H](CS)C(=O)N[C@H](CCCNC(=N)N)C(=O)N[C@H](CCCNC(=N)N)C(=O)N[C@H](Cc1c[nH]cn1)C(=O)N[C@H](CCCNC(=N)N)C(=O)N[C@H](C)C(=O)N[C@H](CCCNC(=N)N)C(N)=O [SEQ ID NO: 109, Ac-crrhrar-NH2] (Ac-[dC][dR][dR][dH][dR][dA][dR]-NH2) | 9 | –
6.2 | CC(=O)N[C@H](CS)C(=O)N[C@H](CCCNC(=N)N)C(=O)N[C@H](CCCNC(=N)N)C(=O)N[C@H](Cc1ccccc1)C(=O)N[C@H](CCCNC(=N)N)C(=O)N[C@H](C)C(=O)N[C@H](CCCNC(=N)N)C(N)=O [SEQ ID NO: 110, Ac-crrfrar-NH2] (Ac-[dC][dR][dR][dF][dR][dA][dR]-NH2) | 6 | –
2.0 | CC(=O)N[C@H](CS)C(=O)N[C@H](CCCNC(=N)N)C(=O)N[C@H](CCCNC(=N)N)C(=O)N[C@H](CO)C(=O)N[C@H](CCCNC(=N)N)C(=O)N[C@H](C)C(=O)N[C@H](CCCNC(=N)N)C(N)=O [SEQ ID NO: 111, Ac-crrsrar-NH2] (Ac-[dC][dR][dR][dS][dR][dA][dR]-NH2) | 4 | –
4.5 | CC(=O)N[C@H](CS)C(=O)N[C@H](CCCNC(=N)N)C(=O)N[C@H](CCCNC(=N)N)C(=O)N[C@H](CC(C)C)C(=O)N[C@H](CCCNC(=N)N)C(=O)N[C@H](C)C(=O)N[C@H](CCCNC(=N)N)C(N)=O [SEQ ID NO: 114, Ac-crrlrar-NH2] (Ac-[dC][dR][dR][dL][dR][dA][dR]-NH2) | 1 | –
